{"source": "patent US9657351B2", "about": "“MRNA-based gene expression for personalizing patient cancer therapy with an MDM2 antagonist” (Hoffmann-La Roche Inc., priority 2013, dated 2017)", "key": {"8305C": {"system": "8305C", "experiment": "COMPOUND A In Vitro Assay", "type": "cell-based", "settings": "Homo sapiens, Thyroid gland, TP53 Mutant", "text": "(§1) To generate an MDM2 antagonist therapy predictive signature, the response of MDM2 antagonist therapy in vitro with gene expression profiling (FIG. 1) is combined. A bank of 287 human cancer cell lines, collectively termed the Cell Lines for Oncology/Chugai ACcumulative Tumour EncycLopedia (CELLO/CACTEL), representing a broad array of diverse human cancer tumor types are subject to evaluation using several high-throughput genomic technology platforms. The mutational status of nucleic acids from each cell line is determined by exome sequencing. Messenger RNA (mRNA) expression levels at baseline, prior to MDM2 antagonist therapy, are obtained via RNA sequencing. MDM2 antagonist therapy COMPOUND A, sometimes referred to herein as RG7112, responses are obtained by assays known to those skilled in the art such as RNA sequencing and microarray measurement using Gene Chip Human Genome U133 Plus 2.0 Array. The MDM2 therapy responses are obtained by high throughout screening assays. Depending on their responses to COMPOUND A these cell lines are classified as either sensitive, defined as IC50<=1, or resistant, defined as IC50>=10.\n(§2) 281 cells are treated with MDM2 antagonists and the IC50 (therapy response) is generated. The cell lines span a broad range of tumor cell types of derivation."}, "ACHN": {"system": "ACHN", "experiment": "COMPOUND A In Vitro Assay", "type": "cell-based", "settings": "Homo sapiens", "text": "as §1, §2"}, "CFPAC-1": {"system": "CFPAC-1", "experiment": "COMPOUND A In Vitro Assay", "type": "cell-based", "settings": "Homo sapiens, Pancreas, TP53 Mutant", "text": "as §1, §2"}, "CMK-11-5": {"system": "CMK-11-5", "experiment": "COMPOUND A In Vitro Assay", "type": "cell-based", "settings": "Homo sapiens, Lymphocyte, TP53 Mutant", "text": "as §1, §2"}, "HCC1143": {"system": "HCC1143", "experiment": "COMPOUND A In Vitro Assay", "type": "cell-based", "settings": "Homo sapiens, Breast, mammary gland, TP53 Mutant", "text": "as §1, §2"}, "HMCB": {"system": "HMCB", "experiment": "COMPOUND A In Vitro Assay", "type": "cell-based", "settings": "Homo sapiens, Skin, TP53 Mutant", "text": "as §1, §2"}, "MDA-MB-435S": {"system": "MDA-MB-435S", "experiment": "COMPOUND A In Vitro Assay", "type": "cell-based", "settings": "Homo sapiens, Skin, TP53 Mutant", "text": "as §1, §2"}, "MDA-MB-468": {"system": "MDA-MB-468", "experiment": "COMPOUND A In Vitro Assay", "type": "cell-based", "settings": "Homo sapiens, Breast, mammary gland, TP53 Mutant", "text": "as §1, §2"}, "MFM-223": {"system": "MFM-223", "experiment": "COMPOUND A In Vitro Assay", "type": "cell-based", "settings": "Homo sapiens, Breast, mammary gland, TP53 Mutant", "text": "as §1, §2"}, "NCI-H1993": {"system": "NCI-H1993", "experiment": "COMPOUND A In Vitro Assay", "type": "cell-based", "settings": "Homo sapiens, Lung, TP53 Mutant", "text": "as §1, §2"}, "NCI-H2171": {"system": "NCI-H2171", "experiment": "COMPOUND A In Vitro Assay", "type": "cell-based", "settings": "Homo sapiens, Lung, TP53 Mutant", "text": "as §1, §2"}, "PC-10": {"system": "PC-10", "experiment": "COMPOUND A In Vitro Assay", "type": "cell-based", "settings": "Homo sapiens, PC10, Lung, TP53 Mutant", "text": "as §1, §2"}, "SH-SY5Y": {"system": "SH-SY5Y", "experiment": "COMPOUND A In Vitro Assay", "type": "cell-based", "settings": "Homo sapiens", "text": "as §1, §2"}, "SK-HEP-1": {"system": "SK-HEP-1", "experiment": "COMPOUND A In Vitro Assay", "type": "cell-based", "settings": "Homo sapiens", "text": "as §1, §2"}, "SK-MES-1": {"system": "SK-MES-1", "experiment": "COMPOUND A In Vitro Assay", "type": "cell-based", "settings": "Homo sapiens, Lung, TP53 Mutant", "text": "as §1, §2"}, "SW948": {"system": "SW948", "experiment": "COMPOUND A In Vitro Assay", "type": "cell-based", "settings": "Homo sapiens, Intestine, large, colon, TP53 Mutant", "text": "as §1, §2"}, "U-937": {"system": "U-937", "experiment": "COMPOUND A In Vitro Assay", "type": "cell-based", "settings": "Homo sapiens, Pleura, TP53 Mutant", "text": "as §1, §2"}, "Y79": {"system": "Y79", "experiment": "COMPOUND A In Vitro Assay", "type": "cell-based", "settings": "Homo sapiens", "text": "as §1, §2"}, "[1]": {"system": "patients with relapsed/refractory leukemia (AML)", "experiment": "NO21279 Phase 1 leukemia trial, clinical response (CR, MLFS, HI, PD)", "type": "in vivo, human", "procedure": "The performance of the MDM2 antagonist predictive mRNA response signature is tested in the clinical setting with specimens from the NO21279 leukemia trial (FIG. 1). 28 AML patients treated at the MTD are enrolled and completed pretreatment and C1D10 (cycle 1, day 10) sampling. […] The clinical endpoint in NO21279 was divided into 4 categories: Complete Response (CR), Morphologic Leukemia-Free State (MLFS), Hematologic Improvement (HI), and Progressive Disease (PD). Blood leukemia samples and bone marrow biopsy samples were collected at baseline screening, after a single dose (cycle 1 day 2, C1D2) and on last day of dosing (cycle 1, day 10, C1D10) and isolated via MACS® separation^11. The early pharmacodynamic effect of MDM2 antagonism in blood leukemia samples was assessed by measuring MDM2 RT PCR change between baseline and C1D10. Global gene expression profiles were generated for the peripheral blood leukemia cells and bone marrow biopsy samples obtained at baseline, C1D2 and C1D10.\nIn the NO21279 Phase 1 clinical trial, patients with relapsed/refractory leukemia are treated with ascending doses of COMPOUND A. Specimens from subset of patients treated at the MTD (1500 mg BID×10 days) are evaluated as a part of the current gene expression study. Leukemia samples are collected at baseline, cycle 1 day 2 (C1D2) and cycle 1, day 10 (C1D10) and isolated via MACs separation.\nIn the NO21279 Phase 1 clinical trial, patients with relapsed/refractory leukemia are treated with ascending doses of RG7112. Specimens from subset of patients treated at the MTD (1500 mg BID×10 days) are evaluated as a part of the current gene expression study. Leukemia samples are collected at baseline, cycle 1 day 2 (C1D2) and cycle 1, day 10 (C1D10) and isolated via MACs separation.\nClinical responses are evaluated and are divided into 4 categories: Complete Response (CR), Morphologic Leukemia-Free State (MLFS), Hematologic Improvement (HI), and Progressive Disease (PD). […] In addition to assessments of baseline samples, treatment samples are also evaluated (Cycle 1, Day 10)."}, "P53": {"system": "P53", "settings": "NP22890; at C1D8; as previously reported; cited from earlier work"}, "P21": {"system": "P21", "settings": "NP22890; at C1D8; as previously reported; cited from earlier work"}, "[2]": {"system": "Ki-67-positive tumor cells", "settings": "NP22890; as previously reported; cited from earlier work"}, "clinical": {"experiment": "clinical", "settings": "both, human, in vivo, AUC0-24, median"}, "[3]": {"settings": "of 28 AML patients treated at the MTD (1500 mg BID×10 days)"}}, "note": "“Also recorded” adds a separate entry of the source."}
{"smiles": "CCOc1cc(C(C)(C)C)ccc1C1=N[C@@](C)(c2ccc(Cl)cc2)[C@@](C)(c2ccc(Cl)cc2)N1C(=O)N1CCN(CCCS(C)(=O)=O)CC1", "note": "[COMPOUND A]", "values": [{"measurement": "IC50", "setting": "8305C", "value": 24, "unit": "µM"}, {"measurement": "IC50", "setting": "ACHN; ACHN cells", "value": 0.3, "unit": "µM"}, {"measurement": "IC50", "setting": "ACHN; Kidney, TP53 Wild type", "value": 0.29, "unit": "µM"}, {"measurement": "IC50", "setting": "CFPAC-1", "value": 5.7, "unit": "µM"}, {"measurement": "IC50", "setting": "CMK-11-5", "value": 9.6, "unit": "µM"}, {"measurement": "IC50", "setting": "HCC1143", "value": 12, "unit": "µM"}, {"measurement": "IC50", "setting": "HMCB", "value": 15, "unit": "µM"}, {"measurement": "IC50", "setting": "MDA-MB-435S", "value": 12, "unit": "µM"}, {"measurement": "IC50", "setting": "MDA-MB-468", "value": 10, "unit": "µM"}, {"measurement": "IC50", "setting": "MFM-223", "value": 17, "unit": "µM"}, {"measurement": "IC50", "setting": "NCI-H1993", "value": 7.7, "unit": "µM"}, {"measurement": "IC50", "setting": "NCI-H2171", "value": 11, "unit": "µM"}, {"measurement": "IC50", "setting": "PC-10", "value": 14, "unit": "µM"}, {"measurement": "IC50", "setting": "SH-SY5Y; Brain, TP53 Wild type", "value": 0.75, "unit": "µM"}, {"measurement": "IC50", "setting": "SH-SY5Y; SH-SY5Y cells", "value": 0.8, "unit": "µM"}, {"measurement": "IC50", "setting": "SK-HEP-1; SK-HEP1, SK-HEP-1, Liver, TP53 Wild type", "value": 0.22, "unit": "µM"}, {"measurement": "IC50", "setting": "SK-HEP-1; SK-HEP1, SK-HEP-1 cells", "value": 0.2, "unit": "µM"}, {"measurement": "IC50", "setting": "SK-MES-1", "value": 6, "unit": "µM"}, {"measurement": "IC50", "setting": "SW948", "value": 19, "unit": "µM"}, {"measurement": "IC50", "setting": "U-937", "value": 5.2, "unit": "µM"}, {"measurement": "IC50", "setting": "Y79; Y79, Y79, Eye, retina, TP53 Wild type", "value": 0.61, "unit": "µM"}, {"measurement": "IC50", "setting": "Y79; Y79, Y79 cells", "value": 0.6, "unit": "µM"}, {"measurement": "Response, number of patients with CR", "setting": "[1]; all 28 patients, NO21279", "value": "3CR,"}, {"measurement": "Response, number of patients with HI", "setting": "[1]; all 28 patients, NO21279", "value": "6 HI,"}, {"measurement": "Response, number of patients with MLFS", "setting": "[1]; all 28 patients, NO21279", "value": "4 MLFS,"}, {"measurement": "Response, number of patients with PD", "setting": "[1]; all 28 patients, NO21279", "value": 15, "unit": "PD"}, {"measurement": "Response", "setting": "[1]; individual AML patients (no. 1-28), NO21279, MTD 1500 mg BID×10 days, listed as RG7112", "value": "CR (Complete Response (CR)); also recorded: MLFS (Morphologic Leukemia-Free State (MLFS)); also recorded: HI (Hematologic Improvement (HI)); also recorded: PD (Progressive Disease (PD))"}, {"measurement": "clinical response: number of patients with Complete Response (CR)", "setting": "[1]; [3]", "value": 3}, {"measurement": "clinical response: number of patients with Hematologic Improvement (HI)", "setting": "[1]; [3]", "value": 6}, {"measurement": "clinical response: number of patients with Morphologic Leukemia-Free State (MLFS)", "setting": "[1]; [3]", "value": 4}, {"measurement": "clinical response: number of patients with Progressive Disease (PD)", "setting": "[1]; [3]", "value": 15}, {"measurement": "P53 concentration change from baseline", "setting": "P53", "value": "significantly increase"}, {"measurement": "P21 concentration change from baseline", "setting": "P21", "value": "significantly increase"}, {"measurement": "Ki-67-positive tumor cells change from baseline", "setting": "[2]", "value": "decreased"}, {"measurement": "AUC(0-t)", "setting": "clinical", "value": 190, "unit": "µg·h/mL"}]}
